# pIC50: −log10 of the molar value. Structures can show the parent of a compound that is named as a salt. Where two headings read alike, the source gives them in different places.
# Test system: cultured human mast cells (CHMC)
# Assay: CHMC low cell density IgE activation: tryptase assay
# Format: cell-based
# Summary of the method: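 Anti-IgE-driven degranulation of cultured human mast cells at low density, 1000–1500 cells/well, was induced over 30 min at 37 °C. It was scored by supernatant tryptase activity on a fluorogenic substrate.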
# [1] = low cell density, IgE activation, 3 pt, read-out: LD Tryptase, CHMC, IgE, 3 pt
# [2] = low cell density, IgE activation, 8 pt, read-out: LD Tryptase, CHMC, IgE, 8 pt
# [3] = Homo sapiens, Mast cell, low cell density, IgE activation, 3 pt, read-out: LD Tryptase, CHMC, IgE, 3 pt
# [4] = Homo sapiens, Mast cell, low cell density, IgE activation, 8 pt, read-out: LD Tryptase, CHMC, IgE, 8 pt
# [5] = low cell density CHMC, IgE activation, tryptase readout, 8 pt, read-out: LD Tryptase, CHMC, IgE, 8 pt
# [6] = low cell density CHMC, IgE activation, tryptase readout, 3 pt, read-out: LD Tryptase, CHMC, IgE, 3 pt
structure (smiles),measurement,setting,value
"Cn1c(CS(C)(=O)=O)nc2cc(Nc3ncc(F)c(Nc4ccc5c(n4)NC(=O)C(C)(C)O5)n3)ccc21 [Compound 969, N4-(2,2-Dimethyl-3-oxo-4H-5-pyrido[1,4]oxazin-6-yl)-5-fluoro-N2-{1-methyl-2-[ (methylsulfonyl)methyl]benzimidazol-5-yl}-2,4-pyrimidinediamine]",pIC50,[1],> 5.00
same,pIC50,[2],> 5.00
CCN(CC)Cc1nc2cc(Nc3ncc(F)c(Nc4ccc(Cl)c(Cl)c4)n3)ccc2n1C [Compound 970],pIC50,[3],> 5.00
CCN(CC)Cc1nc2cc(Nc3ncc(F)c(Nc4ccc(OC)c(Cl)c4)n3)ccc2n1C [Compound 971],pIC50,[3],> 5.00
CCN(CC)Cc1nc2cc(Nc3ncc(F)c(Nc4ccc5c(c4)NC(=O)C(C)(C)O5)n3)ccc2n1C [Compound 972],pIC50,[3],> 5.00
same,pIC50,[4],> 5.00
CCN(CC)Cc1nc2cc(Nc3ncc(F)c(Nc4ccc5c(c4)NC(=O)[C@H](C)O5)n3)ccc2n1C [Compound 973],pIC50,[3],> 5.00
same,pIC50,[4],> 5.00
"CCN(CC)Cc1nc2cc(Nc3ncc(F)c(Nc4ccc5c(n4)NC(=O)C(C)(C)O5)n3)ccc2n1C [Compound 974, N2-[2-(N,N-Diethylaminomethyl)-1-methylbenzimidazol-5-yl]-N4-(2,2-dimethyl-3-oxo-4H-5-pyrido[1,4]oxazin-6-yl)-5-fluoro-2,4-pyrimidinediamine]",pIC50,[1],> 5.00
same,pIC50,[2],> 5.00
"CC1(C)Oc2ccc(Nc3nc(Nc4ccc5[nH]c(N6CCOCC6)nc5c4)ncc3F)cc2NC1=O [Compound 976, N4-(2,2-Dimethyl-3-oxo-4H-benz[1,4]oxazin-6-yl)-5-fluoro-N2-[2-(4-morpholino)-1H-benzimidazol-5-yl]-2,4-pyrimidinediamine]",pIC50,[4],> 5.00
"CC1(C)Oc2ccc(Nc3nc(Nc4ccc5[nH]c(N6CCOCC6)nc5c4)ncc3F)nc2NC1=O [Compound 977, N4-(2,2-Dimethyl-3-oxo-4H-5-pyrido[1,4]oxazin-6-yl)-5-fluoro-N2-[2-(4-morpholino)-1H-benzimidazol-5-yl]-2,4-pyrimidinediamine]",pIC50,[4],> 5.00
"COc1ccc(Nc2nc(Nc3ccc4[nH]c(N5CCOCC5)nc4c3)ncc2F)cc1Cl [Compound 978, N4-(3-Chloro-4-methoxyphenyl)-5-fluoro-N2-[2-(4-morpholino)-1H-benzimidazol-5-yl]-2,4-pyrimidinediamine]",pIC50,[2],> 5.00
"CNC(=O)COc1cccc(Nc2ncc(F)c(Nc3ccc4c(n3)NC(=O)C(C)(C)O4)n2)c1 [Compound 984, N4-(2,2-Dimethyl-3-oxo-4H-5-pyrid[1,4]oxazin-6-yl)-5-fluoro-N2-[3-(N-methylamino)carbonylmethyleneoxyphenyl]-2,4-pyrimidinediamine Benzensulfonic Acid Salt]",pIC50,"Homo sapiens, Mast cell, read-out: LD Tryptase, CHMC, IgE, 3 pt",> 5.00
same,pIC50,"Homo sapiens, Mast cell, read-out: LD Tryptase, CHMC, IgE, 8 pt",> 5.00
"CNC(=O)COc1cccc(Nc2ncc(F)c(Nc3ccc4c(n3)NC(=O)C(C)(C)O4)n2)c1 [Compound 986, N4-(2,2-Dimethyl-3-oxo-4H-5-pyrid[1,4]oxazin-6-yl)-5-fluoro-N2-[3-(N-methylamino)carbonylmethyleneoxyphenyl]-2,4-pyrimidinediamine Hydrogen Chloride Salt]",pIC50,[1],> 5.00
same,pIC50,[2],> 5.00
"CNC(=O)COc1cccc(Nc2ncc(F)c(Nc3ccc4c(c3)NCC(C)(C)O4)n2)c1 [Compound 1000, N4-(3,4-Dihydro-2,2-dimethyl-4H-benz[1,4]oxazin-6-yl)-5-fluoro-N2-[3-(N-methylamino)carbonylmethyleneoxyphenyl]-2,4-pyrimidinediamine]",pIC50,[2],> 5.00
"COc1c(C)cc(Nc2ncc(F)c(Nc3ccc4c(c3)NCC(C)(C)O4)n2)cc1Cl [Compound 1001, N2-(3-Chloro-4-methoxy-5-methylphenyl)-N4-(3,4-dihydro-2,2-dimethyl-4H-benz[1,4]oxazin-6-yl)-5-fluoro-2,4-pyrimidinediamine]",pIC50,[2],> 5.00
"COc1cc(Nc2ncc(F)c(Nc3ccc4c(c3)NCC(C)(C)O4)n2)cc(OC)c1 [Compound 1002, N4-(3,4-Dihydro-2,2-dimethyl-4H-benz[1,4]oxazin-6-yl)-N2-(3,5-dimethoxyphenyl)-5-fluoro-2,4-pyrimidinediamine]",pIC50,[2],> 5.00
"CC(C)c1cccc(Nc2ncc(F)c(Nc3ccc4c(n3)NC(=O)C(C)(C)O4)n2)c1 [Compound 1003, N4-(2,2-Dimethyl-3-oxo-4H-5-pyrid[1,4]oxazin-6-yl)-5-fluoro-N2-(3-isopropylphenyl)-2,4-pyrimidinediamine]",pIC50,[1],> 5.00
same,pIC50,[2],> 5.00
"CC1(C)Oc2ccc(Nc3nc(Nc4ccc(-c5ncco5)cc4)ncc3F)nc2NC1=O [Compound 1035, N4-(2,2-Dimethyl-3-oxo-4H-5-pyrid[1,4]oxazin-6-yl)-5-fluoro-N2-[4-(oxazol-2-yl)phenyl]-2,4-pyrimidinediamine]",pIC50,[5],< 5.00
"COc1c(C)cc(Nc2ncc(F)c(Nc3ccc4c(n3)NC(=O)CO4)n2)cc1C [Compound 1059, N2-(3,5-Dimethyl-4-methoxyphenyl)-5-fluoro-N4-(3-oxo-2H,4H-5-pyrid[1,4]oxazin-6-yl)-2,4-pyrimidinediamine]",pIC50,[5],> 5.00
"Cc1c(O)cccc1Nc1ncc(F)c(Nc2ccc3c(c2)NC(=O)C(C)(C)O3)n1 [Compound 1060, N4-(2,2-Dimethyl-3-oxo-4H-benz[1,4]oxazin-6-yl)-5-fluoro-N2-(3-hydroxy-2-methylphenyl)-2,4-pyrimidinediamine]",pIC50,"Homo sapiens, Mast cell, low cell density CHMC, IgE activation, tryptase readout, 8 pt, read-out: LD Tryptase, CHMC, IgE, 8 pt",> 5.00
"COc1cccc(Nc2ncc(F)c(Nc3ccc4c(n3)NC(=O)CO4)n2)c1C [Compound 1061, 5-Fluoro-N2-(3-methoxy-2-methylphenyl)-N4-(3-oxo-2H,4H-5-pyrid[1,4]oxazin-6-yl)-2,4-pyrimidinediamine]",pIC50,[5],> 5.00
"COc1cccc(Nc2ncc(F)c(Nc3ccc4c(c3)NC(=O)C(C)(C)O4)n2)c1C [Compound 1062, N4-(2,2-Dimethyl-3-oxo-4H-benz[1,4]oxazin-6-yl)-5-fluoro-N2-(3-methoxy-2-methylphenyl)-2,4-pyrimidinediamine]",pIC50,"Homo sapiens, Mast cell, low cell density CHMC, IgE activation, tryptase readout, 3 pt, read-out: LD Tryptase, CHMC, IgE, 3 pt",> 5.00
"Cc1c(O)cccc1Nc1ncc(F)c(Nc2ccc3c(n2)NC(=O)CO3)n1 [Compound 1063, 5-Fluoro-N2-(3-hydroxy-2-methylphenyl)-N4-(3-oxo-2H,4H-5-pyrid[1,4]oxazin-6-yl)-2,4-pyrimidinediamine]",pIC50,[5],> 5.00
"Cc1c(O)cccc1Nc1ncc(F)c(Nc2ccc3c(n2)NC(=O)C(C)(C)O3)n1 [Compound 1064, N4-(2,2-Dimethyl-3-oxo-4H-5-pyrid[1,4]oxazin-6-yl)-5-fluoro-N2-(3-hydroxy-2-methylphenyl)-2,4-pyrimidinediamine]",pIC50,[5],> 5.00
"COc1cccc(Nc2ncc(F)c(Nc3ccc4c(n3)NC(=O)C(C)(C)O4)n2)c1C [Compound 1065, N4-(2,2-Dimethyl-3-oxo-4H-5-pyrid[1,4]oxazin-6-yl)-5-fluoro-N2-(3-methoxy-2-methylphenyl)-2,4-pyrimidinediamine]",pIC50,[6],> 5.00
"COC(=O)COc1cccc(Nc2ncc(F)c(Nc3ccc4c(c3)NC(=O)C(C)(C)O4)n2)c1C [Compound 1066, N4-(2,2-Dimethyl-3-oxo-4H-benz[1,4]oxazin-6-yl)-5-fluoro-N2-[3-methoxycarbonylmethyleneoxy-2-methylphenyl]-2,4-pyrimidinediamine]",pIC50,[6],> 5.00
"CNC(=O)COc1cccc(Nc2ncc(F)c(Nc3ccc4c(c3)NC(=O)C(C)(C)O4)n2)c1C [Compound 1067, N4-(2,2-Dimethyl-3-oxo-4H-benz[1,4]oxazin-6-yl)-5-fluoro-N2-[2-methyl-3-(N-methylamino)carbonylmethyleneoxyphenyl]-2,4-pyrimidinediamine]",pIC50,[5],> 5.00
"CNC(=O)COc1cccc(Nc2ncc(F)c(Nc3ccc4c(n3)NC(=O)CO4)n2)c1C [Compound 1068, 5-Fluoro-N2-[2-methyl-3-(N-methylamino)carbonylmethyleneoxyphenyl]-N4-(3-oxo-2H,4H-5-pyrid[1,4]oxazin-6-yl)-2,4-pyrimidinediamine]",pIC50,[5],> 5.00
"Cc1cc(Nc2ncc(F)c(Nc3ccc4c(n3)NC(=O)CO4)n2)cc(C)c1O [Compound 1069, N2-(3,5-Dimethyl-4-hydroxyphenyl)-5-fluoro-N4-(3-oxo-2H,4H-5-pyrid[1,4]oxazin-6-yl)-2,4-pyrimidinediamine]",pIC50,[5],> 5.00
"CCOC(=O)N1CCN(c2cccc(Nc3ncc(F)c(Nc4ccc5c(n4)NC(=O)CO5)n3)c2)CC1 [Compound 1070, N2-[3-(4-Ethoxycarbonylpiperazino)phenyl]-5-fluoro-N4-(3-oxo-2H,4H-5-pyrid[1,4]oxazin-6-yl)-2,4-pyrimidinediamine]",pIC50,[5],> 5.00
"CC(=O)N1CCN(c2cccc(Nc3ncc(F)c(Nc4ccc5c(n4)NC(=O)CO5)n3)c2)CC1 [Compound 1071, N2-[3-(4-Acetylpiperazino)phenyl]-5-fluoro-N4-(3-oxo-2H,4H-5-pyrid[1,4]oxazin-6-yl)-2,4-pyrimidinediamine]",pIC50,[5],> 5.00
"CCOC(=O)N1CCN(c2ccc(Nc3ncc(F)c(Nc4ccc5c(n4)NC(=O)CO5)n3)cc2)CC1 [Compound 1072, N2-[4-(4-Ethoxycarbonylpiperazino)phenyl]-5-fluoro-N4-(3-oxo-2H,4H-5-pyrid[1,4]oxazin-6-yl)-2,4-pyrimidinediamine]",pIC50,[5],> 5.00
"O=C1COc2ccc(Nc3nc(Nc4cccc(N5CCOCC5)c4)ncc3F)nc2N1 [Compound 1073, 5-Fluoro-N2-(3-morpholinophenyl)-N4-(3-oxo-2H,4H-5-pyrid[1,4]oxazin-6-yl)-2,4-pyrimidinediamine]",pIC50,[5],> 5.00
